Reference: US20240287614A1, “RECIPROCAL MICRORNA-MRNA PAIRINGS AS BIOMARKERS AND THERAPEUTIC TARGETS IN CANCER” (UNIVERSITY OF MARYLAND, EASTERN SHORE, priority 2023, published 2024)

How the values were obtained:
MTOR = test: Western blot of mTOR in transfected prostate cancer cells; assay type: cell-based, human; conditions: mimic transfection vs NS transfection
Protocol: (§1) […] RC77 T/E, a primary prostate cancer cell line derived from a patient, was kindly provided by Dr. Johng Rhim at Center for Prostate Disease Research (CPDR) in Rockville, MD. LNCaP and PC-3 were served as prostate cancer cell line models, and RC77 T/E and MDA PCa 2b were served as prostate cancer cell models in the study. The cells were cultured in specific cell culture media, LNCaP was cultured in RPMI with 10% fetal bovine serum (FBS), PC-3 was cultured in DMEM with 10% FBS, MDA PCa 2b were cultured in BRFF-HPC1 with 20% FBS and RC77 T/E was cultured in Keratinocyte SFM with Human Recombinant Epidermal Growth Factor (EGF 1-53) and Bovine Pituitary Extract (BPE). Cells were maintained at 37° C. in a 5% CO2 incubator. LNCaP, PC-3 and MDA PCa 2b cells were seeded at density 3×10^4 cells/well in 6-well plates. RC77 T/E cells were seeded at density 5×10^4 cells/well in 6-well plates. […]
For measurement of the gene expression at protein level, proteins were extracted using M-PER Mammalian Protein Extraction Reagent (Thermo Fisher Scientific) with protease and phosphatase inhibitor cocktail (Thermo Fisher Scientific). Protein concentrations were quantified using BCA assay kit (Thermo Fisher Scientific). […]

[1] = system: prostate cancer (LNCaP and PC-3) and prostate cancer (RC77 T/E and MDA PCa 2b) cell lines; test: BrdU-labeling cell proliferation assay; assay type: cell-based, human; conditions: PC-3, RC77 T/E and MDA PCa 2b, 48 h transfection, vs NS
Protocol: as §1
LNCaP, PC-3, RC77 T/E and MDA PCa 2b cells were seeded at density 3×10^4 cells/well in 6-well culture plates. […] 100 μL of stop solution was used to stop further reaction and followed by checking absorbance at dual wavelengths of 450 nm and 540 nm using Multiskan FC microplate photometer (Thermo Scientific).

[2] = system: prostate cancer (LNCaP and PC-3) and prostate cancer (RC77 T/E and MDA PCa 2b) cell lines; test: Caspase 3/7 activity-based apoptosis assay, prostate cancer cell lines; design: species or system human
Protocol: […] RC77 T/E, a primary prostate cancer cell line derived from a patient, was kindly provided by Dr. Johng Rhim at Center for Prostate Disease Research (CPDR) in Rockville, MD. LNCaP and PC-3 were served as prostate cancer cell line models, and RC77 T/E and MDA PCa 2b were served as prostate cancer cell models in the study. The cells were cultured in specific cell culture media, LNCaP was cultured in RPMI with 10% fetal bovine serum (FBS), PC-3 was cultured in DMEM with 10% FBS, MDA PCa 2b were cultured in BRFF-HPC1 with 20% FBS and RC77 T/E was cultured in Keratinocyte SFM with Human Recombinant Epidermal Growth Factor (EGF 1-53) and Bovine Pituitary Extract (BPE). Cells were maintained at 37° C. in a 5% CO2 incubator. LNCaP, PC-3 and MDA PCa 2b cells were seeded at density 3×10^4 cells/well in 6-well plates. RC77 T/E cells were seeded at density 5×10^4 cells/well in 6-well plates. The cells were allowed to grow for 24 h and then were either transfected with miR-34a-5p mimic, miR-99b-5p mimic, or miR-96-5p antagomir using DharmaFECT4 transfection reagent (Dharmacon), according to the manufacturer's protocol. After 24 h, the cells were replaced with fresh media then incubated for 24 h. miR-34a-5p mimic, miR-99b-5p mimic, miR-96-5p antagomir, and nonsense miRNA mimic and antagomir controls were purchased from Ambion. Nonsense/scrambled miRNA mimic and antagomir were used as negative controls.
For the measurement of apoptosis initiation by transfection of miRNA mimic or antagomir in prostate cancer cells, the transfected cells 5000 cells/well were seeded onto 96-well cell culture plates (Corning) and then incubated overnight. The miRNA mimic/antagomir transfected cells were then treated with vehicle or […] of Docetaxel. 24 h after the vehicle or drug treatment, the apoptosis assays were performed using Apo-ONE Caspase-3/7 Assay Kit (Promega Corporation) according to the protocol described by the manufacturer. 100 μL of homogeneous Caspase-3/7 reagent was added to the sample plate and incubated at room temperature for 1 h. Fluorescence was detected for measuring the apoptosis state (Caspase 3/7 activity) using Biotek Synergy HT Microplate Reader (BioTek) at wavelengths of 499 nm and 521 nm for excitation and emission, respectively.

For “miR-99b-5p mimic: miRNA mimic of miR-99b-5p (SEQ ID NO: 2, CACCCGUAGAACCGACCUUGCG), purchased from Ambion (listed as RNA, chemistry not given here; listed as Homo sapiens)”, the “mTOR level (Western blot)” value (MTOR) was “downregulated”, the “cell proliferation (BrdU labeling)” value [1] was “reduction” and the “docetaxel-induced cytotoxicity (caspase 3/7 activity), combination with docetaxel” value ([2]; LNCaP cells, 11 mM of Docetaxel, 24 h) was “further enhanced”. For the same substance, the “apoptosis (caspase 3/7 activity), transfection in the presence of docetaxel” value ([2]; RC77 T/E and MDA PCa 2b, 11 mM of Docetaxel, 24 h) was “significantly induced apoptosis” and the “cell apoptosis (caspase 3/7 activity) compared with NS transfected cells” value ([2]; absence of docetaxel (vehicle control), LNCaP, PC-3, RC77 T/E, MDA PCa 2b) was “overall generalized or significant increase”.
